Measured values published in PubChem BioAssay (NCI).
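Five compound concentrations were applied to cells in 96-well plates for 48 hours; endpoints were derived by simple linear interpolation of the resulting dose-response curve. At the TGI there is no net growth.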

Columns and labels:
Assay in all cases: NCI anticancer screen, dose series, 48 h
[1] = test system: DU-145 prostate
[2] = test system: LOX IMVI melanoma
[3] = test system: ACHN renal
[4] = test system: TK-10 renal
[5] = test system: SF-295 CNS
[6] = test system: T-47D breast
[7] = test system: UACC-257 melanoma
[8] = test system: 786-0 renal
[9] = test system: OVCAR-3 ovarian
[10] = test system: HCC-2998 colon

Row | Structure (SMILES) | TGI [1] [µM] | TGI [2] [µM] | TGI [3] [µM] | TGI [4] [µM] | TGI [5] [µM] | TGI [6] [µM] | TGI [7] [µM] | TGI [8] [µM] | TGI [9] [µM] | TGI [10] [µM]
1 | CC(C)(C)OC(=O)[C@@H]1CCC(=O)N1C1(c2ccccc2)c2ccccc2-c2ccccc21 | > 100 | 37.2 | > 100 | > 100 | 61.1 | > 100 | > 100 | > 100 | > 100 | > 100
2 | Cc1cc(S(=O)(=O)Nc2nc3ncccc3[nH]2)c(S)cc1Cl | > 100 | > 100 | > 100 | > 100 | > 100 | > 100 | > 100 | > 100 | > 100 | > 100
3 | Cc1ccc(S(=O)(=O)N2C[C@@H]3CC[C@]4(CO[Si](C)(C)C(C)(C)C)N[C@@H](c5ccccc5)[C@H]2[C@H]34)cc1 | > 100 | > 100 | > 100 | > 100 | > 100 | 52.6 | 93.8 | > 100 | > 100 | 50.5
4 | NNC(=O)Nc1nc2ccc(NN)cc2[nH]1 | > 100 | > 100 | > 100 | 82.6 | > 100 | > 100 | 88.1 | > 100 | > 100 | 41.4
5 | O=C(Nc1sccc1S(=O)(=O)c1ccc(Cl)cc1)c1ccc(F)cc1F | > 100 | > 100 | > 100 | 42.7 | 65.3 | > 100 | > 100 | 36.5 | > 100 | > 100
6 | O=c1[nH]nc(-c2ccccc2)n1/N=C/c1ccc([N+](=O)[O-])o1 | 17.5 | > 100 | 14.4 | > 100 | > 55.1 | > 96.4 | 11.9 | > 31.7 | 15.5 | 12.4
7 | C#C[C@]1(O)CC[C@H]2[C@@H]3CCC4=C/C(=N/NC(=O)c5cccc6c(=O)c7ccccc7[nH]c56)CCC4[C@H]3CC[C@@]21C (stereo not given in full) | > 100 | > 100 | > 100 | > 100 | > 100 | > 100 | > 100 | > 100 | > 100 | > 100
8 | COC(=O)c1ccccc1C1CN=NC12Cc1c(ccc3c1CCC3)C2=O (stereo not given) | > 100 | 60.4 | > 100 | > 100 | > 100 | > 100 | 95.1 | > 100 | > 100 | > 100
9 | COC(=O)[C@H](Cc1c[nH]c2ccccc12)NP(=O)(OCCC#N)OCC1OC(n2cc(C)c(=O)[nH]c2=O)CC1N=[N+]=[N-] (stereo not given in full) | > 100 | > 100 | > 100 | > 100 | > 100 | > 100 | > 100 | > 100 | > 100 | > 100
10 | CCOC(=O)C1CC(C(=O)c2ccccc2)N2c3ccccc3-c3ccccc3C12 (stereo not given) | > 100 | > 100 | > 100 | > 100 | > 100 | > 100 | > 100 | > 100 | > 100 | > 100
11 | Fc1cccc(F)c1C1SCc2nc3cc(Cl)c(Cl)cc3n21 (stereo not given) | > 100 | > 100 | > 100 | > 100 | > 100 | > 100 | > 100 | > 100 | > 100 | > 100
12 | Cc1nc2cc(F)c(F)cc2[nH]c1=O | > 100 | > 100 | > 100 | > 100 | > 100 | > 100 | > 100 | > 100 | > 100 | > 100
13 | O=[N+]([O-])c1ccc(NN=C2CN3CCN(C2)c2ccccc23)c([N+](=O)[O-])c1 | > 100 | > 100 | > 100 | > 100 | > 100 | > 100 | > 100 | > 100 | > 100 | > 100
14 | Cc1cccc2c(N)c3cccc(C(=O)NCC[N+](C)(C)Cc4ccc([N+](=O)[O-])s4)c3nc12 | 46.8 | 18.6 | > 49.2 | > 100 | > 100 | > 67.6 | > 78 | 27.8 | 49.6 | 25.2
15 | O=C(O)CSc1ccccc1C(=O)O | > 100 | > 100 | > 100 | 53.5 | > 100 | > 100 | 34.1 | > 100 | > 100 | 46.8
16 | COC(=O)C1=C(OC(=O)/C(=C/c2ccccc2)c2ccc(OC)cc2)C(C(=O)OC)[C@@]2(O)[C@@H](C(=O)OC)[C@H](C)C[C@@H]1[C@@H]2C(=O)OC (stereo not given in full) | > 100 | > 100 | > 100 | > 100 | > 100 | > 100 | > 100 | > 100 | > 100 | > 100
17 | C[C@]12CC[C@H]3[C@@H](CCC4=CC(=O)C=C[C@@]43OC(=O)C(F)(F)F)[C@@H]1CCC2=O | > 100 | > 100 | > 100 | > 100 | > 100 | > 100 | > 100 | > 83.5 | > 100 | > 100
18 | O=C1NC(=O)c2ccccc2/C1=C/c1ccc2c(c1)OCO2 | > 100 | 46.4 | 34.3 | > 100 | 83.1 | > 100 | 55.3 | > 100 | 25 | 38.9
19 | CC(C)(C)OC(=O)NC12C3C4C1C1C2C3C41NC(=O)OC(C)(C)C (stereo not given) | > 100 | > 100 | > 100 | > 100 | > 100 | > 100 | > 100 | > 100 | > 100 | > 100
